Patent US20070178523A1, “Novel druggable regions in set domain proteins, and methods of using the same” (Emory University, priority 2002, published 2007)
Entries after “also recorded” stand apart in the source; their conditions may differ.

Assays:
DIM-5 [1] = biological target: T1, DIM-5 (Neurospora crassa, UniProt Q8X225); test: Methyl transfer (HKMT) activity assay; assay type: biochemical, N. crassa; set-up: A segment of the wild-type dim-5 ORF, including amino acid residues 17-318, was amplified; GST (N, cleaved yes); made in house; host or cells: E. coli BL21(DE3) Codon plus RIL carrying pXC379 (pGEX2T); conditions: for DIM-5 activity after incubation with metal chelator: incubation of metal chelator with DIM-5 protein
Experimental: The activity of the DIM-5 was assayed in a 20 μl reaction containing 50 mM glycine (pH 9.8), 2 mM DTT, 40-80 μM unlabelled AdoMet (Sigma), 0.5 μCi [methyl-^3H]AdoMet (78 Ci/mmol, NEN NET155H), 0.25-0.5 μg of DIM-5 protein, and 2-5 μg histones (calf thymus histones Sigma H4524, Roche 223565, or recombinant chicken erythrocyte histones, a gift from Dr. V. Ramakrishnan). The reaction was incubated at room temperature for 10-15 min and methylation was analyzed either by SDS-PAGE and fluorography, or by precipitation with 20% TCA, filtration (Milipore GF/F filter), washing and liquid scintillation counting. Under these conditions, DIM-5 activity was linearly related to reaction time and amount of enzyme and AdoMet and histone were saturating. For some reason, the relatively crude Sigma H4524 histone preparations generally gave 2-4 fold higher incorporation than either the Roche preparations or the recombinant histones.

DIM-5 [2] = biological target: T1, DIM-5; conditions: when EDTA completely abolished DIM-5 activity
Experimental: To remove zinc bound to EDTA, the protein was either dialyzed (Exp1) or subjected to gel filtration chromatography (Exp2) against 20 mM glycine (pH 9.8), 5% glycerol, 0.5 mM DTT and 1 mM EDTA.
One sample of untreated and two samples of EDTA treated DIM-5 protein (about 2 ml of 2 mg/ml each) was analyzed for the presence of 20 elements on a Thermo Jarrell-Ash Enviro 36 ICAP analyzer at the Chemical Analysis Laboratory of the University of Georgia at Athens. In order to calculate the molar ratio of Zn to protein, the precise concentration of the untreated DIM-5 protein was determined by amino acid analysis (averaging two independent measurements) performed at the Keck Facilities at Yale University. The extinction coefficient (29,559 M^−1 cm^−1) derived from the amino acid analysis was used to estimate the protein concentration of the EDTA-treated samples.

DIM-5 [3] = biological target: T1, DIM-5; test: AdoMet-binding assay by UV crosslinking; set-up: A segment of the wild-type dim-5 ORF, including amino acid residues 17-318, was amplified; GST (N, cleaved yes); made in house; host or cells: E. coli BL21(DE3) Codon plus RIL carrying pXC379 (pGEX2T); species or system N. crassa; conditions: incubation of metal chelator with DIM-5 protein
Experimental: Twenty μl of purified DIM-5 protein (2-5 μg) was incubated with 0.5 μCi of [methyl-^3H]AdoMet (78 Ci/mmol, NEN NET155H) overnight at 4° C. Samples were added to a 96-well plate on ice and placed 8 cm from an inverted UV transilluminator (VWR, 302 nm) for 1 hr. The protein was then separated by SDS-PAGE, stained with Coomassie and subjected to fluorography.

T1 sequence (Q8X225 30-331): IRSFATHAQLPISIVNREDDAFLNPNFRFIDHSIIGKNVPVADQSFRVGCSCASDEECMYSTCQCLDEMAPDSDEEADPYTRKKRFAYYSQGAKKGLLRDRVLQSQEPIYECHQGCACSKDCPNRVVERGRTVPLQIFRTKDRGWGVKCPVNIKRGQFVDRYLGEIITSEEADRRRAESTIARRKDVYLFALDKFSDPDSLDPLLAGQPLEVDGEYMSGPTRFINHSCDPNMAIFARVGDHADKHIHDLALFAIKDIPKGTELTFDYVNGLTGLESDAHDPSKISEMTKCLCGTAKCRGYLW

| SMILES | inhibition of DIM-5 activity (DIM-5 [1]; 100 mM NaCl) | zinc ions retained by the protein (DIM-5 [2]) | AdoMet-binding (DIM-5 [3]) | HKMT activity (DIM-5 [1]; DIM-5 incubated with 20 mM EDTA for 2 days) | DIM-5 activity after incubation with metal chelator (DIM-5 [1]) |
| --- | --- | --- | --- | --- | --- |
| [Cl-].[Na+] [NaCl] | about 95% | – | – | – | – |
| O=C(O)CN(CCN(CC(=O)O)CC(=O)O)CC(=O)O [EDTA] | – | ~2.9 zinc ions | significantly reduced | no longer detectable | inhibited its activity; also recorded: completely abolished |
| c1cnc2c(c1)ccc1cccnc12 [phenanthroline, 1,10-phenanthroline] | – | – | significantly reduced | – | inhibited its activity |
